Experimental findings from patent publication US20100160411A1, “BENZOXATHIINE AND BENZOXATHIOLE DERIVATIVES AND USES THEREOF” (Wyeth, priority 2006, published 2010) are described below.

By Ki is commonly meant the dissociation constant of the complex between target and ligand, obtained from inhibition or displacement. As a reminder, the Emax is the size of the effect at its maximum, as opposed to the concentration needed. In general, EC50 refers to the concentration needed to bring the measured effect to its halfway point. A word on the Kd: it is the constant that tells how readily two partners part at equilibrium.

Where two headings read alike, the source gives them in different places.

The target of experiment [1] is T1, human 5-hydroxytryptamine-2C (h5-HT2C) receptor (Homo sapiens, UniProt P28335).
T1 construct: expressed in transfected cells; host or cells: CHO (Chinese Hamster Ovary) cells; membrane preparation
T1 sequence (P28335 33-458): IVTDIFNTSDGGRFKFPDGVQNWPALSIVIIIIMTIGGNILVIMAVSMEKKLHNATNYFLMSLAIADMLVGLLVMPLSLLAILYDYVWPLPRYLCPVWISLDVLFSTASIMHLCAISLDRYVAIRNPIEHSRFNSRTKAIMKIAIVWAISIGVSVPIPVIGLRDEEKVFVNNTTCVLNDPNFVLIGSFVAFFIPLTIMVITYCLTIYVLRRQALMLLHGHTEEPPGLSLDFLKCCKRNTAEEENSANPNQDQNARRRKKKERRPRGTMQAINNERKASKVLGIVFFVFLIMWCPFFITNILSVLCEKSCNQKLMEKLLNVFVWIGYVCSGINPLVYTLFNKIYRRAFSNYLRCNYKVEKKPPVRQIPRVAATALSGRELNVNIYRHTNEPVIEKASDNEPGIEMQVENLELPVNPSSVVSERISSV
Description: [125I]DOI binding to membranes of CHO cells expressing the h5-HT2C receptor.

The target in experiment [2] is T2, human 5-HT2C receptor (Homo sapiens, UniProt P28335).
T2 sequence (P28335 33-458): T1 sequence (P28335 33-458)
Description: calcium mobilization (FLIPR) in CHO cells stably expressing the human 5-HT2C receptor. Format: cell-based. In general terms: Calcium flux is commonly read through the fluorescence of an indicator in the cells.

[3] abbreviates: read-out: 5-HT2C Binding Ki avg.

`NCC1CSc2cc(F)cc(-c3c(Cl)cccc3Cl)c2O1` (stereo not shown) [Example 1, C-[8-(2,6-Dichloro-phenyl)-6-fluoro-2,3-dihydro-benzo[1,4]oxathiin-2-yl]-methylamine]: the Ki in experiment [1] (setting [3]) is 0.535 nM. For the same compound, in experiment [2] (CHO, read-out: 5-HT2C Function EMax (%)), the maximal response (Emax) is 70%. Also, the EC50 in experiment [2] (calcium mobilization, CHO cells, FLIPR, read-out: 5-HT2C Function EC50) worked out at 356 nM. For `NCC1C[S+]([O-])c2cc(F)cc(-c3c(Cl)cccc3Cl)c2O1` (stereo not shown) [Example 2, C-[8-(2,6-Dichloro-phenyl)-6-fluoro-4-oxo-3,4-dihydro-2H-4lambda*4*-benzo[1,4]oxathiin-2-yl]-methylamine], the Ki in experiment [1] (setting [3]) is 388 nM. Same read-out and setting: with `NCC1CS(=O)(=O)c2cc(F)cc(-c3c(Cl)cccc3Cl)c2O1` (stereo not shown) [Example 3, C-[8-(2,6-Dichloro-phenyl)-6-fluoro-4,4-dioxo-3,4-dihydro-2H-4lambda*6*-benzo[1,4]oxathiin-2-yl]-methylamine] the figure was 11.7 nM. Take `CSc1ccc2c(c1)C(N1CCN(C)CC1)Cc1ccccc1S2` (stereo not shown) [Methiothepin, reference compound]: in experiment [1] (reference compounds, 95% confidence interval in parentheses, [125I]DOI radioligand, CHO cell membranes, read-out: Ki), the Ki was 4.6 nM. Consider `COc1cc(CC(C)N)c(OC)cc1I` (stereo not shown) [[125I] DOI, reference compound], for which, in experiment [1] (saturation binding with increasing concentrations of [125I] DOI, read-out: dissociation constant, KD), the Kd worked out at 0.4 nM.
